#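 Cultured in 96-well plates, cells were exposed to test compound for 48 hours across five concentrations. Abbreviation: GI50, concentration required for 50% inhibition of growth. Definition used: TGI = concentration required for complete inhibition of growth.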
# Columns and labels:
# Assay in all cases: DTP human tumour cell line panel, 48 h
# [1] = test system: NCI-H23 lung
# [2] = test system: SF-268 CNS
# [3] = test system: CCRF-CEM leukemia
# [4] = test system: HL-60(TB) leukemia
# [5] = test system: TK-10 renal
# [6] = test system: A549 NSCLC
# [7] = test system: BT-549 breast
# [8] = test system: SNB-19 CNS
# [9] = test system: HOP-62 NSCLC
# [10] = test system: NCI-H522 lung
# [11] = test system: RXF 393 renal
# [12] = test system: COLO 205 colon
# [13] = test system: EKVX NSCLC
# [14] = test system: A498 renal
# [15] = test system: HT29 colon
# [16] = test system: U251 CNS
# [17] = test system: M14 melanoma
# [18] = test system: OVCAR-5 ovarian
# [19] = test system: OVCAR-8 ovarian
# [20] = test system: CAKI-1 renal
# [21] = test system: RPMI-8226 leukemia
# [22] = test system: SW-620 colon
# [23] = test system: SK-OV-3 ovarian
# [24] = test system: SN12C renal
# [25] = test system: MDA-MB-231 breast
# [26] = test system: OVCAR-3 ovarian
# [27] = test system: T-47D breast
# [28] = test system: UACC-257 melanoma
# [29] = test system: SR leukemia
# [30] = test system: SK-MEL-5 melanoma
# [31] = test system: UO-31 renal
# [32] = test system: SK-MEL-2 melanoma
# [33] = test system: KM12 colon
# [34] = test system: HCT-15 colon
# [35] = test system: UACC-62 melanoma
# [36] = test system: NCI-H460 lung
# [37] = test system: SF-539 CNS
# [38] = test system: MALME-3M melanoma
# [39] = test system: MCF7 breast
# [40] = test system: IGROV1 ovarian
# [41] = test system: SNB-75 CNS
# [42] = test system: 786-0 renal
# [43] = test system: ACHN renal
# [44] = test system: MOLT-4 leukemia
# [45] = test system: HCT-116 colon
# [46] = test system: NCI/ADR-RES ovarian
# [47] = test system: PC-3 prostate
# [48] = test system: SF-295 CNS
# [49] = test system: HS 578T breast
# [50] = test system: LOX IMVI melanoma
# [51] = test system: MDA-MB-435
# [52] = test system: HCC-2998 colon
# [53] = test system: OVCAR-4 ovarian
# [54] = test system: SK-MEL-28 melanoma
# [55] = test system: K-562 leukemia
# [56] = test system: HOP-92 NSCLC
# [57] = test system: DU-145 prostate
smiles,measurement,setting,value
CC(=O)OC[C@]12CC[C@@H](C(=O)CBr)[C@@H]1[C@H]1CC[C@@H]3[C@@]4(C)CCCNC(C)(C)[C@@H]4CC[C@@]3(C)[C@]1(C)CC2,GI50,[1],7.01 µM
same,TGI,[1],23.5 µM
same,GI50,[2],5.98 µM
same,TGI,[2],23.9 µM
same,GI50,[3],1.06 µM
same,TGI,[3],3.29 µM
same,GI50,[4],2.11 µM
same,TGI,[4],4.95 µM
same,GI50,[5],2.93 µM
same,TGI,[5],11.6 µM
same,GI50,[6],14.5 µM
same,TGI,[6],31.9 µM
same,GI50,[7],2.2 µM
same,TGI,[7],5.52 µM
same,GI50,[8],11.5 µM
same,TGI,[8],25.2 µM
same,GI50,[9],14.3 µM
same,TGI,[9],28.2 µM
same,GI50,[10],2.06 µM
same,TGI,[10],4.6 µM
same,GI50,[11],1.83 µM
same,TGI,[11],3.64 µM
same,GI50,[12],3.92 µM
same,TGI,[12],17.2 µM
same,GI50,[13],12.5 µM
same,TGI,[13],25.2 µM
same,GI50,[14],15 µM
same,TGI,[14],28.5 µM
same,GI50,[15],3.07 µM
same,TGI,[15],10.5 µM
same,GI50,[16],12.7 µM
same,TGI,[16],25.4 µM
same,GI50,[17],2.38 µM
same,TGI,[17],6.66 µM
same,GI50,[18],13.5 µM
same,TGI,[18],26.6 µM
same,GI50,[19],4.1 µM
same,TGI,[19],23.8 µM
same,GI50,[20],1.81 µM
same,TGI,[20],4.13 µM
same,GI50,[21],2.36 µM
same,TGI,[21],6.69 µM
same,GI50,[22],2.77 µM
same,TGI,[22],8.06 µM
same,GI50,[23],12.6 µM
same,TGI,[23],26.1 µM
same,GI50,[24],2.28 µM
same,TGI,[24],5.25 µM
same,GI50,[25],3.72 µM
same,TGI,[25],17.9 µM
same,GI50,[26],1.93 µM
same,TGI,[26],3.85 µM
same,GI50,[27],2.31 µM
same,TGI,[27],6.92 µM
same,GI50,[28],9.2 µM
same,TGI,[28],23.1 µM
same,GI50,[29],2 µM
same,TGI,[29],5.71 µM
same,GI50,[30],4.55 µM
same,TGI,[30],15.8 µM
same,GI50,[31],1.71 µM
same,TGI,[31],4.04 µM
same,GI50,[32],6.03 µM
same,TGI,[32],20.3 µM
same,GI50,[33],11.8 µM
same,TGI,[33],27.3 µM
same,GI50,[34],1.65 µM
same,TGI,[34],3.52 µM
same,GI50,[35],2.11 µM
same,TGI,[35],4.71 µM
same,GI50,[36],7.66 µM
same,TGI,[36],21.8 µM
same,GI50,[37],2.42 µM
same,TGI,[37],6.57 µM
same,GI50,[38],2 µM
same,TGI,[38],4.29 µM
same,GI50,[39],2.27 µM
same,TGI,[39],6.21 µM
same,GI50,[40],1.83 µM
same,TGI,[40],3.76 µM
same,GI50,[41],15.4 µM
same,TGI,[41],32.8 µM
same,GI50,[42],1.65 µM
same,TGI,[42],3.27 µM
same,GI50,[43],2.02 µM
same,TGI,[43],4.28 µM
same,GI50,[44],2.03 µM
same,TGI,[44],5.43 µM
same,GI50,[45],1.84 µM
same,TGI,[45],3.61 µM
same,GI50,[46],4.89 µM
same,TGI,[46],31.2 µM
same,GI50,[47],1.65 µM
same,TGI,[47],3.72 µM
same,GI50,[48],14.6 µM
same,TGI,[48],28.2 µM
same,GI50,[49],15.9 µM
same,TGI,[49],> 100 µM
same,GI50,[50],1.76 µM
same,TGI,[50],3.31 µM
same,GI50,[51],3.81 µM
same,TGI,[51],13.8 µM
same,GI50,[52],11.5 µM
same,TGI,[52],26.1 µM
same,GI50,[53],3.89 µM
same,TGI,[53],18.9 µM
same,GI50,[54],2.23 µM
same,TGI,[54],4.23 µM
same,GI50,[55],2.61 µM
same,TGI,[55],8.33 µM
same,GI50,[56],1.6 µM
same,TGI,[56],3.7 µM
same,GI50,[57],4.1 µM
same,TGI,[57],14.2 µM

# Source: PubChem BioAssay (NCI)
